Laboratory results reported in patent US9751837B2, “Kinase inhibitors” (RESPIVERT LIMITED, priority 2014, dated 2017).
Values after ≈ are worked out from the molar mass of the structure shown.

Columns and labels:
Jurkat cells = assay: Cell cytotoxicity assay (r); assay type: cell-based, human; conditions: 24 hours
Experimental: 1×10^5 Jurkat cells (immortalised human T lymphocytes) are added to the appropriate number of wells of a 96 well plate in 100 μL of media (RPMI supplemented with 10% foetal bovine serum). 1 μL of DMSO control (final concentration 1.0% v/v) or test compound (final concentration 20, 5 or 1 μg/mL) is added to the wells and incubated at 37° C., 5% CO2. After 24 hours, the plate is centrifuged at 1200 rpm for 3 minutes and the supernatant discarded. Cells are then resuspended in 150 μL (final concentration 7.5 μg/mL) of propidium iodide (PI) in PBS and incubated at 37° C., 5% CO2 for 15 minutes. After 15 minutes, cells are analysed by flow cytometry (BD accuri) using the FL3 window. The % viability is calculated as the % of cells that are PI negative in the test wells normalised to the DMSO control.

[1] = Solubility in fasted-state simulated colonic fluid (FaSSCoF) at pH 6.5; assay type: physicochemical; conditions: 25 °C, pH 6.5, fassgf or other biorelevant, thermodynamic from solid
Experimental: The solubilities of compounds of the invention in FaSSCoF at pH 6.5 are determined using a modification of a previously-reported procedure (Vertzoni, M., et al. Pharm. Res. 2010, 27, 2187-2196). In place of the bile salt extract employed in the original procedure (which extract is no longer available), the modified procedure uses a mixture of sodium taurochlorate (0.15 g), glycocholic acid (0.15 g), ursodeoxycholic acid (0.05 g), cholic acid (0.05 g), and glycodeoxycholic acid (0.05 g). These five bile acids are ground together with a mortar and pestle to produce a fine white powder that is incorporated into the FaSSCoF, as outlined below.
Tris(hydroxymethyl)aminomethane (Tris; 0.275 g) and maleic acid (0.44 g) are dissolved in water (35 mL) to give a solution whose pH is adjusted to 6.5 by treatment with 0.5M NaOH (ca. 12 mL). The solution is then made up to 50 mL with water. A portion of this Tris/maleate buffer solution (ca. 25 mL) is added to a 0.5 L round-bottomed flask, before being treated with 0.00565 g of the bile acid mixture described above. Solutions of phosphatidylcholine (0.0111 g) in DCM (0.15 mL) and palmitic acid (0.0013 g) in DCM (0.15 mL) are added, then the organic solvent is evaporated off under reduced pressure at 40° C. until a clear solution, with no perceptible DCM odour, is achieved. The volume of the evaporated solution is adjusted to 50 mL by addition of the remainder of Tris/maleate buffer, then BSA (0.115 g) is added, before being dissolved by gentle agitation.
Test compounds are suspended in the pH 6.5 FaSSCoF medium to give a maximum final concentration of 2-10 mg/mL. The suspensions are equilibrated at 25° C. for 24 h, before being filtered through a glass fibre C filter. The filtrates are then diluted as appropriate for injection and quantification by HPLC with reference to a standard. Different volumes of the standard, diluted and undiluted sample solutions are injected and the solubilities are calculated using the peak areas determined by integration of the peak found at the same retention time as the principal peak in the standard injection.

[2] = pH 6.5 FaSSCoF Solubility (mg/mL) Run 1
[3] = pH 6.5 FaSSCoF Solubility (mg/mL) Run 2

SMILES	% Viability at 20 μg/mL (Jurkat cells) [%]	solubility thermodynamic at 24 h [1, 2] [µg/mL]	solubility thermodynamic at 24 h [1, 3] [µg/mL]	% Viability at 5 μg/mL (Jurkat cells) [%]	% Viability at 1 μg/mL (Jurkat cells) [%]
COc1cc(Nc2nccc(Oc3ccc(NC(=O)Nc4cc(C(C)(C)C)cc(NS(C)(=O)=O)c4OC)c4ccccc34)n2)ccc1C(=O)NCCC1CCN(C)CC1 [17(an), 4-((4-((4-(3-(5-(tert-butyl)-2-methoxy-3-(methylsulfonamido)phenyl)ureido)naphthalen-1-yl)oxy)pyrimidin-2-yl)amino)-2-methoxy-N-(2-(1-methylpiperidin-4-yl)ethyl)benzamide]	1.1	47 (≈ 57 µM)	49 (≈ 59.4 µM)		
COc1cc(Nc2nccc(Oc3ccc(NC(=O)Nc4cc(C(C)(C)C)cc(NS(C)(=O)=O)c4OC)c4ccccc34)n2)ccc1C(=O)NCCCN1CCOCC1 [17(ao), 4-((4-((4-(3-(5-(tert-Butyl)-2-methoxy-3-(methylsulfonamido)phenyl)ureido)naphthalen-1-yl)oxy)pyrimidin-2-yl)amino)-2-methoxy-N-(3-morpholinopropyl)benzamide]	1.6	9 (≈ 10.9 µM)	9 (≈ 10.9 µM)		
COc1cc(Nc2nccc(Oc3ccc(NC(=O)Nc4cc(C(C)(C)C)cc(NS(C)(=O)=O)c4OC)c4ccccc34)n2)ccc1C(=O)NCCCN1CCN(C)CC1 [17(ap), 4-((4-((4-(3-(5-(tert-Butyl)-2-methoxy-3-(methylsulfonamido)phenyl)ureido)naphthalen-1-yl)oxy)pyrimidin-2-yl)amino)-2-methoxy-N-(3-(4-methylpiperazin-1-yl)propyl)benzamide]	0.6	< 1	< 1		
COc1cc(Nc2nccc(Oc3ccc(NC(=O)Nc4cc(C(C)(C)C)cc(NS(C)(=O)=O)c4OC)c4ccccc34)n2)ccc1C(=O)NCCN1CCN(C)CC1 [17(aq), 4-((4-((4-(3-(5-(tert-Butyl)-2-methoxy-3-(methylsulfonamido)phenyl)ureido)naphthalen-1-yl)oxy)pyrimidin-2-yl)amino)-2-methoxy-N-(2-(4-methylpiperazin-1-yl)ethyl)benzamide]	1.3	< 1	< 1	0.2	
COc1cc(Nc2cc(Oc3ccc(NC(=O)Nc4cc(C(C)(C)C)cc(NS(C)(=O)=O)c4OC)c4ccccc34)ccn2)ccc1C(=O)NCCCCCN(C)C [17(bd), 4-((4-((4-(3-(5-(tert-Butyl)-2-methoxy-3-(methylsulfonamido)phenyl)ureido)naphthalen-1-yl)oxy)pyridin-2-yl)amino)-N-(5-(dimethylamino)pentyl)-2-methoxybenzamide]	0.1				
CCN1CCN(CCNC(=O)c2ccc(Nc3cc(Oc4ccc(NC(=O)Nc5cc(C(C)(C)C)cc(NS(C)(=O)=O)c5OC)c5ccccc45)ccn3)cc2OC)CC1 [17(be), 4-((4-((4-(3-(5-(tert-Butyl)-2-methoxy-3-(methylsulfonamido)phenyl)ureido)naphthalen-1-yl)oxy)pyridin-2-yl)amino)-N-(2-(4-ethylpiperazin-1-yl)ethyl)-2-methoxybenzamide]	0.5			0.7	
COc1cc(Nc2cc(Oc3ccc(NC(=O)Nc4cc(C(C)(C)C)cc(NS(C)(=O)=O)c4OC)c4ccccc34)ccn2)ccc1C(=O)NCCN1CCN(C)CC1(C)C [17(bi), 4-((4-((4-(3-(5-(tert-Butyl)-2-methoxy-3-(methylsulfonamido)phenyl)ureido)naphthalen-1-yl)oxy)pyridin-2-yl)amino)-2-methoxy-N-(2-(2,2,4-trimethylpiperazin-1-yl)ethyl)benzamide]	0.6			0.8	
CCC(=O)NS(=O)(=O)c1ccc(Nc2nccc(Oc3ccc(NC(=O)Nc4cc(C(C)(C)C)cc(NS(C)(=O)=O)c4OC)c4ccccc34)n2)cc1OC [17(bk), N-((4-((4-((4-(3-(5-(tert-Butyl)-2-methoxy-3-(methylsulfonamido)phenyl)ureido)-naphthalen-1-yl)oxy)pyrimidin-2-yl)amino)-2-methoxyphenyl)sulfonyl)propionamide]					93.0
COc1cc(Nc2cc(Oc3ccc(NC(=O)Nc4cc(NS(C)(=O)=O)cc(C(C)(C)C)c4)c4ccccc34)ccn2)ccc1C(=O)NCCC1CCN(C)CC1 [17(bs), 4-((4-((4-(3-(3-(tert-Butyl)-5-(methylsulfonamido)phenyl)ureido)naphthalen-1-yl)oxy)pyridin-2-yl)amino)-2-methoxy-N-(2-(1-methylpiperidin-4-yl)ethyl)benzamide]	0.3				
COc1cc(Nc2nccc(Oc3ccc(NC(=O)Nc4cc(C(C)(C)C)cc(NS(C)(=O)=O)c4OC)c4ccccc34)n2)ccc1C(=O)NCCOCCOCCO [17(by), 4-((4-((4-(3-(5-(tert-Butyl)-2-methoxy-3-(methylsulfonamido)phenyl)ureido)naphthalen-1-yl)oxy)pyrimidin-2-yl)amino)-N-(2-(2-(2-hydroxyethoxy)ethoxy)ethyl)-2-methoxybenzamide]	1.6				
COc1cc(Nc2cc(Oc3ccc(NC(=O)Nc4cc(C(C)(C)C)cc(NS(C)(=O)=O)c4OC)c4ccccc34)ccn2)ccc1S(=O)(=O)CCCN1CCN(C)CC1 [17(ch), N-(5-(tert-Butyl)-2-methoxy-3-(3-(4-((2-((3-methoxy-4-((3-(4-methylpiperazin-1-yl)propyl)sulfonyl)phenyl)amino)pyridin-4-yl)oxy)naphthalen-1-yl)ureido)phenyl)methanesulfonamide]	0.7				82.0
COc1cc(Nc2cc(Oc3ccc(NC(=O)Nc4cc(C(C)(C)C)cc(NS(C)(=O)=O)c4OC)c4ccccc34)ccn2)ccc1C(=O)N[C@@H]1CCN(C)C1 [17(cq), (R)-4-((4-((4-(3-(5-(tert-Butyl)-2-methoxy-3-(methylsulfonamido)phenyl)ureido)-naphthalen-1-yl)oxy)pyridin-2-yl)amino)-2-methoxy-N-(1-methylpyrrolidin-3-yl)benzamide]	0.7			9.0	
COc1cc(Nc2cc(Oc3ccc(NC(=O)Nc4cc(C(C)(C)C)cc(NS(C)(=O)=O)c4OC)c4ccccc34)ccn2)ccc1C(=O)NCCN1CC[C@@H](O)C1 [17(cr), (R)-4-((4-((4-(3-(5-(tert-Butyl)-2-methoxy-3-(methylsulfonamido)phenyl)ureido)-naphthalen-1-yl)oxy)pyridin-2-yl)amino)-N-(2-(3-hydroxypyrrolidin-1-yl)ethyl)-2-methoxybenzamide]	0.9			18.0	
COc1cc(Nc2cc(Oc3ccc(NC(=O)Nc4cc(C(C)(C)C)cc(NS(C)(=O)=O)c4OC)c4ccccc34)ccn2)ccc1S(=O)(=O)N(C)CCCN1CCN(C)CC1 [Example 25, 4-((4-((4-(3-(5-(tert-Butyl)-2-methoxy-3-(methylsulfonamido)phenyl)ureido)naphthalen-1-yl)oxy)pyridin-2-yl)amino)-2-methoxy-N-methyl-N-(3-(4-methylpiperazin-1-yl)propyl)benzenesulfonamide]	0.7				
COc1cc(Nc2cc(Oc3ccc(NC(=O)Nc4cc(C(C)(C)C)cc(NS(C)(=O)=O)c4OC)c4ccccc34)ccn2)ccc1C(=O)NCCC1CCNCC1 [Example 27, 4-((4-((4-(3-(5-(tert-Butyl)-2-methoxy-3-(methylsulfonamido)phenyl)ureido)naphthalen-1-yl)oxy)pyridin-2-yl)amino)-2-methoxy-N-(2-(piperidin-4-yl)ethyl)benzamide]	1.7				
COc1cc(Nc2cc(Oc3ccc(NC(=O)Nc4cc(C(C)(C)C)cc(C(=O)NCCO)c4OC)c4ccccc34)ccn2)ccc1C(=O)NCCN1CC[S+]([O-])CC1 [Example 32, 5-(tert-Butyl)-N-(2-hydroxyethyl)-2-methoxy-3-(3-(4-((2-((3-methoxy-4-((2-(1-oxidothiomorpholino)ethyl)carbamoyl)phenyl)amino)pyridin-4-yl)oxy)naphthalen-1-yl)ureido)benzamide]	2.5				
